For experiment [1], the system named is IL-1β production by mouse peritoneal macrophages. Put plainly: IL-1β production by mouse peritoneal macrophages (ELISA). The class given is cell-based. To be noted: for Inhibition rate: IL-1β production, vs model group; for IL-1β: mouse peritoneal macrophages, 48 h, ELISA. Put shortly: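 Peptides tested at three concentration levels on adherent peritoneal macrophages harvested from mice 3 days after i.p. 6% starch broth, plated at 2×10^6 cells/mL. After 48 h culture with Dex as reference, IL-1β in supernatants was quantified.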
(In general: ELISA stands for enzyme-linked immunosorbent assay.)

Experiment [2] deals with human retinal capillary endothelial cells (HRCECs). The experiment can be described thus: MTT proliferation inhibition on HRCECs. The class given is cell-based. To be noted: 48 h; for A570 nm-A630 nm: mean±SD. In short, it runs like this:
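HRCECs seeded at 3.0×10^4 cells/mL, adhered overnight, then exposed to polypeptide for 48 h at 37 °C, 5% CO2. MTT added 4 h, formazan dissolved in DMSO, absorbance 570/630 nm; PIR (%) = 1 − treated/negative control, mean±SD of three independent runs.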

Experiment [3] concerns corneal neovascularization. The experiment can be described thus: Corneal neovascularization induced by alkali burn in BALB/c mice. The class given is in vivo. To be noted: day 14 after alkali burn, vitreous injection once a day for 1 week. Further details: Inhibition rate (corneal neovascularization): concentration or dose not given beside the values.
Experiment [4] has as its system retinal neovascularization (OIR model). Put plainly: Retinal vessels in OIR mice. The class given is in vivo, C57/B16 mice. As to conditions: for Area of neovascular plexus (mm^2): dose 0.05 μM in the vitreous chamber on day 13, retinal vessels evaluated on day 17; for Inhibition rate (%): dose 0.05 μM in the vitreous chamber on day 13, retinal vessels evaluated on day 17, vs negative control. In short, it runs like this:
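C57/B16 pups were held in 75% oxygen from postnatal day 7 to 12, then returned to room air. On day 13 they received intravitreal saline or compound. On day 17 perfused vessels were labelled by Texas red tomato agglutinin injected into the left ventricle (5 min circulation) and retinal vasculature assessed.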

Experiment [5] concerns retinal vascular endothelial nuclei. Put plainly: Neovascularization in a rat model of premature retinopathy. The class given is in vivo, rats. To be noted: dose 0.05 μM in the vitreous chamber from day 7 of modeling for one week; counted on day 14; oxygen-induced neonatal rats. Put shortly: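 Newborn rats kept 7 d in chamber alternating 80% and 10% O2 every 24 h (23 °C), then room air. Intravitreal injection of test agents on day 7, saline for model and control; eyes taken day 14, HE-stained 4 μm sections. Endothelial nuclei breaching retinal inner limiting membrane counted, averaged per section per eye (10 sections).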

Marks after values point to notes of the source that are not given here. Peptide text beside a SMILES is read from it. * marks the point of attachment. X74 = O=C1C=CC(=O)N1c1cccc(CCCCCCCCCCC(=O)*)c1; X59 = O=C1C=CC(=O)N1c1cccc(CCCCCCCCC(=O)*)c1

Take `C[C@H](NC(=O)CNC(=O)[C@H](CCCNC(=N)N)NC(=O)CCCCCCCCCCc1cccc(N2C(=O)C=CC2=O)c1)C(=O)N[C@@H](CC(=O)O)C(=O)N[C@@H](CCCNC(=N)N)C(=O)N[C@@H](C)C(=O)NCC(=O)NCC(=O)NCC(=O)NCC(=O)N[C@@H](CCCNC(=N)N)C(=O)NCC(=O)N[C@@H](CC(=O)O)C(=O)O` [X34] (X74-RGADRAGGGGRGD-OH): the Inhibition rate worked out at 18.47% in experiment [1] (dose 0.05 μM), 19.97% in experiment [1] (dose 0.1 μM) and 28.14% in experiment [1] (dose 0.2 μM). For the same compound, the IL-1β came to 767.28 ± 18.52 pg/mL in experiment [1] (dose 0.05 μM), 753.21 ± 13.97 pg/mL in experiment [1] (dose 0.1 μM) and 676.31 ± 16.02 pg/mL in experiment [1] (dose 0.2 μM). Besides, the “Inhibition rate (%)” value in experiment [2] (dose 0.05 μM) stood at 50.55%*; in experiment [2] (dose 0.1 μM), 51.43%**; in experiment [2] (dose 0.2 μM) it was 59.92%*; in experiment [4], 43.40%*. The figures for the “A570 nm-A630 nm” value in experiment [2] (dose 0.05 μM), in experiment [2] (dose 0.1 μM) and in experiment [2] (dose 0.2 μM) were 0.6536 ± 0.08102, 0.6420 ± 0.08726 and 0.5298 ± 0.07541, respectively. In experiment [3], the “Inhibition rate (corneal neovascularization)” value stood at 48.36%. In addition, the “MVD (corneal microvessel density)” value in experiment [3] is recorded as 34.72 ± 6.051. In addition, in experiment [4], the “Area of neovascular plexus (mm^2)” value is given as 0.120 ± 0.014 mm^2. The “Nuclei count (retinal vascular endothelial nuclei, average per section per eyeball)” value in experiment [5] worked out at 7.292 ± 3.827.
`C[C@H](NC(=O)CNC(=O)[C@H](CCCNC(=N)N)NC(=O)CCCCCCCCc1cccc(N2C(=O)C=CC2=O)c1)C(=O)N[C@@H](CC(=O)O)C(=O)N[C@@H](CCCNC(=N)N)C(=O)N[C@@H](C)C(=O)NCC(=O)NCC(=O)NCC(=O)NCC(=O)N[C@@H](CCCNC(=N)N)C(=O)NCC(=O)N[C@@H](CC(=O)O)C(=O)O` [X32] (X59-RGADRAGGGGRGD-OH): the Inhibition rate in experiment [1] (dose 0.05 μM) worked out at 18.02%; in experiment [1] (dose 0.1 μM) it was 28.17%; in experiment [1] (dose 0.2 μM), 43.31%. Besides, the figures for the IL-1β in experiment [1] (dose 0.05 μM), in experiment [1] (dose 0.1 μM) and in experiment [1] (dose 0.2 μM) were 771.56 ± 13.41 pg/mL, 676.06 ± 19.82 pg/mL and 533.56 ± 18.54 pg/mL, respectively. In addition, the “Inhibition rate (%)” value is 52.91%* in experiment [2] (dose 0.05 μM), 54.38%** in experiment [2] (dose 0.1 μM), 69.51%* in experiment [2] (dose 0.2 μM) and 54.72%** in experiment [4]. Besides, the “A570 nm-A630 nm” value in experiment [2] (dose 0.05 μM) turned out to be 0.6224 ± 0.08338; in experiment [2] (dose 0.1 μM) it was 0.6030 ± 0.05575; in experiment [2] (dose 0.2 μM), 0.4030 ± 0.00097. Also, in experiment [3], the “Inhibition rate (corneal neovascularization)” value stood at 50.25%. Further, the “MVD (corneal microvessel density)” value in experiment [3] stood at 33.45 ± 6.453. Moreover, the “Area of neovascular plexus (mm^2)” value in experiment [4] worked out at 0.096 ± 0.001 mm^2. Also, the “Nuclei count (retinal vascular endothelial nuclei, average per section per eyeball)” value in experiment [5] stood at 8.394 ± 2.665.

Values taken from patent US20200270309A1, “MALEIMIDE GROUP-MODIFIED ANGIOGENESIS INHIBITOR HM-1 AND USE THEREOF” (NANJING ANJI BIOLOGICAL TECHNOLOGY CO., LTD, priority 2017, published 2020).
